Measured values published in US11691974B2, “3,9-diazaspiro[5,5]undecane compound as FLT3 and AXL inhibitors” (MEDSHINE DISCOVERY INC., priority 2018, dated 2023).

Tests used:
[1] = tested on: MV-4-11 cells; assay: Assay of inhibiting proliferation of MV-4-11 in vitro (CellTiter-Glo); type: cell-based; conditions: Homo sapiens, MV4-11, 72 h, 3 days
Experimental: IMDM medium, fetal bovine serum, and penicillin/streptomycin antibiotics were purchased from Promega (Madison, Wis.). The MV-4-11 cell line was purchased from the Cell Bank of the Chinese Academy of Sciences. Envision Multi-Label Analyzer (PerkinElmer).
MV-4-11 cells were seeded in a white 96-well plate with 80 μL of cell suspension per well containing 10,000 MV-4-11 cells. The cell plate was cultured overnight in a carbon dioxide incubator.
The compounds to be tested were 5-fold serially diluted with a pipette to obtain eight concentrations, i.e., from 2 mmol/L to 26 nmol/L. The assay was carried out in duplicate. 78 μL of medium was added to the intermediate plate, and then 2 μL per well of the serially diluted compounds were transferred to the intermediate plate according to the corresponding position. After mixing, an amount of 20 μL per well was transferred to the cell plate. The cell plate was cultured in a carbon dioxide incubator for 3 days.
25 μL per well of Promega CellTiter-Glo reagent was added to the cell plate and incubated at room temperature for 10 minutes to stabilize the luminescence signal. A PerkinElmer Envision multi-label analyzer was used for reading.
The original data was converted into an inhibition rate, and the IC50 value can be obtained by four-parameter curve fitting.

[2] = tested on: human biphenotypic B bone marrow mononuclear leukemia cell MV4-11 subcutaneous xenograft tumor; assay: Inhibition of MV4-11 subcutaneous xenograft tumor in vivo; parameters: species or system nude mice; conditions: for Average tumor volume Day 25 / Average tumor volume Day 35: then drug withdrawal; for Average tumor volume Day 0: baseline at start of dosing
Experimental: In this assay, the anti-tumor effect of the compounds was evaluated using a nude mice model of subcutaneous xenograft tumor of human biphenotypic B bone marrow mononuclear leukemia cell MV4-11.
Human biphenotypic B bone marrow mononuclear leukemia cell MV4-11 was cultured in vitro in suspension with a RPMI1640 medium supplemented with 10% fetal bovine serum, 100 U/mL penicillin and 100 μg/mL streptomycin in a 5% CO2 cell incubator at 37° C. Routine passaging was performed twice a week. Cells in the logarithmic growth phase were collected, counted and then used for inoculation.
10×10^6 MV4-11 cells were inoculated subcutaneously on the back of the right neck of each mouse, wherein the inoculation volume was 0.2 mL, and the cell suspension was PBS plus matrigel (volume ratio 1:1). The assay of efficacy in vivo was performed on the 13th day after the cell inoculation, at which time the average tumor volume reached 181 mm^3. The mice were randomly divided into groups with 6 mice in each group, and administration to the mice started.
The diameter of the tumor was measured with vernier calipers twice a week. The formula for calculating the tumor volume is: V=0.5a×b^2, where a and b represent the long and short diameters of the tumor, respectively.
After 14 days of administration, the administration was stopped, and the rebound of the tumor was observed.

[3] = tested on: human acute myeloma MOLM-13 cell line subcutaneous xenograft; assay: Inhibition of Molm-13 subcutaneous xenograft tumor in vivo; parameters: species or system NOD/SCID female mice; conditions: for Average tumor volume Day 0: baseline
Experimental: The purpose of this assay is to evaluate the pharmacodynamics of the compounds in the NOD/SCID female mice model of human acute myeloma MOLM-13 cell line subcutaneous xenograft.
MOLM-13 cells were cultured in RPMI-1640 medium containing 10% fetal bovine serum. The MOLM-13 cells were collected in the exponential growth phase, and resuspended in PBS to a suitable concentration for subcutaneous tumor inoculation in nude mice.
The assay mice were inoculated with 5×10^6 MOLM-13 cells resuspended in 0.1 ml of PBS (0.1 ml per mouse) subcutaneously on the right back. Tumor growth was regularly observed. When the tumor grew to an average volume of 98 mm^3, the mice were randomly divided into groups and administered according to tumor size and body weight of the mice.
After the start of administration, the body weight and tumor size of the mice were measured three times a week. The formula for calculating the tumor volume is: tumor volume (mm^3)=½×(a×b^2) (where a represents the long diameter and b represents the short diameter).

[4] = 5 mg/kg oral once a day for 14 days
[5] = 20 mg/kg oral once a day for 14 days

IC50 [1] [nM]	Structure (SMILES)	% Inhibition rate on day 14 ([2]; 5 mg/kg oral once a day) [%]	Average tumor volume Day 14 ([2]; 5 mg/kg oral once a day) [cubic millimeter]	Average tumor volume Day 25 [2, 4] [cubic millimeter]	Average tumor volume Day 35 [2, 4] [cubic millimeter]	Average tumor volume Day 0 ([2]; 5 mg/kg oral once a day group) [cubic millimeter]	% Inhibition rate on day 14 ([2]; 20 mg/kg oral once a day) [%]	Average tumor volume Day 14 ([2]; 20 mg/kg oral once a day) [cubic millimeter]	Average tumor volume Day 25 [2, 5] [cubic millimeter]	Average tumor volume Day 35 [2, 5] [cubic millimeter]	Average tumor volume Day 0 ([2]; 20 mg/kg oral once a day group) [cubic millimeter]	Average tumor volume Day 11 ([3]; 15 mg/kg oral once a day) [cubic millimeter]	Average tumor volume Day 15 ([3]; 15 mg/kg oral once a day) [cubic millimeter]	Average tumor volume Day 11 ([3]; 50 mg/kg oral once a day) [cubic millimeter]	Average tumor volume Day 15 ([3]; 50 mg/kg oral once a day) [cubic millimeter]	Average tumor volume Day 0 ([3]; 15 mg/kg oral once a day group) [cubic millimeter]	Average tumor volume Day 0 ([3]; 50 mg/kg oral once a day group) [cubic millimeter]
4.65	CCc1nc(C(N)=O)c(Nc2ccc(N3CCC(N4CCN(C)CC4)CC3)c(OC)c2)nc1NC1CCOCC1 [Compound B]	118	41	320	1279	181											
5.4	CCc1nc(C(N)=O)c(Nc2ccc(N3CCC4(CCN(C)CC4)CC3)c(OC)c2)nc1NC1CCOCC1 [Compound A]						118	39	258	988	181						
	CCc1nc(C(N)=O)c(Nc2ccc(N3CCC4(CCN(C)CC4)CC3)c(C)c2)nc1NC1CCOCC1 [Compound of formula (I)]											156.85	223.09	53.08	0	98.34	98.05
